Measurements reported in publication PMC9067983, “Identification of highly selective type II kinase inhibitors with chiral peptidomimetic tails” (Journal of Enzyme Inhibition and Medicinal Chemistry, 2022).
Where a SMILES comes first, the peptide text is derived from it. [ ]: non-standard residue; d: D form. The star is where a group is joined. X1 = Cc1ccc(Nc2ncc3c(n2)N(C)C(=O)N(c2cc(C(=O)*)ccc2C)C3)cn1; Aib = CC(C)(N)C(=O)O

Legend:
p38a = target: T1, p38a (Homo sapiens, UniProt Q16539); assay: In vitro kinase assay (IC50); format: biochemical
T1 construct: purchased Reaction Biology Corp
Method: (§1) Full panel kinase profiling and kinase IC50 measurement were performed by using Reaction Biology Corp. (San Diego, USA).

Abl1 = target: T2, Abl1 (Homo sapiens, UniProt P00519); assay: In vitro kinase assay (IC50); format: biochemical
T2 construct: purchased Reaction Biology Corp
T2 sequence (P00519 whole entry): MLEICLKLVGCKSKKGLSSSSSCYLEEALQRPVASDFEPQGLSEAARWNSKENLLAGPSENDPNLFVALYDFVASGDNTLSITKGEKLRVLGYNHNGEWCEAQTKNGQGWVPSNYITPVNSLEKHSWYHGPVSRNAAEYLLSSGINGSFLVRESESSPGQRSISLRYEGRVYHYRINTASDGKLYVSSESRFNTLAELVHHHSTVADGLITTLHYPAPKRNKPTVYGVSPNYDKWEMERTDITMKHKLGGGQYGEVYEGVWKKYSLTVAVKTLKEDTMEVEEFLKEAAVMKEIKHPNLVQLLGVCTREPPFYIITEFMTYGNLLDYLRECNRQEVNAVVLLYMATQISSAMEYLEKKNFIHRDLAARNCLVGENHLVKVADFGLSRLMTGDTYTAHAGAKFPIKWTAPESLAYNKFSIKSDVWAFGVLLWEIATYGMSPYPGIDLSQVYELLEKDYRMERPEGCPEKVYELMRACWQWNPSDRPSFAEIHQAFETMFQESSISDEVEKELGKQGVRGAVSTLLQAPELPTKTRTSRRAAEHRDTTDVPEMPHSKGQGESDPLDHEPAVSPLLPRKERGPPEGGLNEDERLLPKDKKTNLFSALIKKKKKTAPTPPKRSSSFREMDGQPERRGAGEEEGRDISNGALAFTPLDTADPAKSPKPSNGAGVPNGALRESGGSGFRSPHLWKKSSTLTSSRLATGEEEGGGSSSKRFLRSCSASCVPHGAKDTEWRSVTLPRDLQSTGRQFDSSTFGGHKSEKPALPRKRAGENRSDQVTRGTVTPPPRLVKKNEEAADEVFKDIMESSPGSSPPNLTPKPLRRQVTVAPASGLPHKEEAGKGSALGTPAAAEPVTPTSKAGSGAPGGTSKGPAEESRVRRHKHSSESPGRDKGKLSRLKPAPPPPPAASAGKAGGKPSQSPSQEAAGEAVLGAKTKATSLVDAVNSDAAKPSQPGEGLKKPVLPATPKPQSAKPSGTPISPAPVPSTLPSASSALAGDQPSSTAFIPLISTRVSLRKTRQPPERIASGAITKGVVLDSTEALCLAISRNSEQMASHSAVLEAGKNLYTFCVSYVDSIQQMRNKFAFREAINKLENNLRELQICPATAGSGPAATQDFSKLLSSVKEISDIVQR
Method: as §1

Lyn = target: T3, Lyn (Homo sapiens, UniProt P07948); assay: In vitro kinase assay (IC50); format: biochemical
T3 construct: purchased Reaction Biology Corp
T3 sequence (P07948 whole entry): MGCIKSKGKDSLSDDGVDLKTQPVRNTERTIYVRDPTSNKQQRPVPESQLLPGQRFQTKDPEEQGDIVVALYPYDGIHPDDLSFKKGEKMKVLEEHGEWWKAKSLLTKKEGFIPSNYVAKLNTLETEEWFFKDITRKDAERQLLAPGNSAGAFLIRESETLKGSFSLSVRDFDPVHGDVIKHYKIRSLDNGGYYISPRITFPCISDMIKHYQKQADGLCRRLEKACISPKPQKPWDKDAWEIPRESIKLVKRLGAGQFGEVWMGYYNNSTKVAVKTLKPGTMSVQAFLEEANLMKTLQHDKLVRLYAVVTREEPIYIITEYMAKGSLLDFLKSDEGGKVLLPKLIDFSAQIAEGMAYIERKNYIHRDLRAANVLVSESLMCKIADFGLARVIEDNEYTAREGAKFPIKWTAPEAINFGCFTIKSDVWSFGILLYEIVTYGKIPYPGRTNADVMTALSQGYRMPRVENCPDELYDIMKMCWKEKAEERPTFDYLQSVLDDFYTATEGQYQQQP
Method: as §1

Lck [1] = target: T4, Lck (Homo sapiens, UniProt P06239); assay: In vitro kinase assay (IC50); format: biochemical
T4 construct: purchased Reaction Biology Corp
T4 sequence (P06239 whole entry): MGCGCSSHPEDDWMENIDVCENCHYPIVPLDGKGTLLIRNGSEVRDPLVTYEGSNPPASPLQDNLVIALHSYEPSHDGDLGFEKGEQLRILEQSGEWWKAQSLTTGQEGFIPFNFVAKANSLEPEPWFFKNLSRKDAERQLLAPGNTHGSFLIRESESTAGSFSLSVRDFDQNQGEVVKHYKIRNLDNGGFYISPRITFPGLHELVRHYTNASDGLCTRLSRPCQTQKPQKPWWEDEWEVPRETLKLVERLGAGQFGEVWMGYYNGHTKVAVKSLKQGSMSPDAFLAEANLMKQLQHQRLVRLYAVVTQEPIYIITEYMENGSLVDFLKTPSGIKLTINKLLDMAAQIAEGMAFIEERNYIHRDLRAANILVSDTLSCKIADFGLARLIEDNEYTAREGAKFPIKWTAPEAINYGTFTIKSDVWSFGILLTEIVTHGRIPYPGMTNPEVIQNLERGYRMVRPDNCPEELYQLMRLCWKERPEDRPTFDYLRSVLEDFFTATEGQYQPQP
Method: as §1

BMX/ETK = target: T5, BMX/ETK (Homo sapiens, UniProt P51813); assay: In vitro kinase assay (IC50); format: biochemical
T5 construct: purchased Reaction Biology Corp
Method: as §1

Blk = target: T6, Blk (Homo sapiens, UniProt P51451); assay: In vitro kinase assay (IC50); format: biochemical
T6 construct: purchased Reaction Biology Corp
T6 sequence (P51451 whole entry): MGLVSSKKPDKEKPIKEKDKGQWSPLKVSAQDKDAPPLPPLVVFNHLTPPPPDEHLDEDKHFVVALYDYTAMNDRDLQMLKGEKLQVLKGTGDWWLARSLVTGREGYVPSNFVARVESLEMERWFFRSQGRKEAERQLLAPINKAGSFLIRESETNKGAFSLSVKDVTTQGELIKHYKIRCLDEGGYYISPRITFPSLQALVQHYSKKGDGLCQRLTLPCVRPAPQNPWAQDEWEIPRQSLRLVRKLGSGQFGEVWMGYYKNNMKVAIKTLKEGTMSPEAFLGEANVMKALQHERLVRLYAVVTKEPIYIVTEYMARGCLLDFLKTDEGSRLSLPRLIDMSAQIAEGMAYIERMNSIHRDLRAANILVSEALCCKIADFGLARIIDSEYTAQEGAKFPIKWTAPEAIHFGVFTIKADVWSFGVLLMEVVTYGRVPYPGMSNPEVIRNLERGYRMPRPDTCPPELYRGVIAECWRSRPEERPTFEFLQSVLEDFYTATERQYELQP
Method: as §1

c-Src [2] = target: T7, c-Src (Homo sapiens, UniProt P12931); assay: In vitro kinase assay (IC50); format: biochemical
T7 construct: purchased Reaction Biology Corp
T7 sequence (P12931 whole entry): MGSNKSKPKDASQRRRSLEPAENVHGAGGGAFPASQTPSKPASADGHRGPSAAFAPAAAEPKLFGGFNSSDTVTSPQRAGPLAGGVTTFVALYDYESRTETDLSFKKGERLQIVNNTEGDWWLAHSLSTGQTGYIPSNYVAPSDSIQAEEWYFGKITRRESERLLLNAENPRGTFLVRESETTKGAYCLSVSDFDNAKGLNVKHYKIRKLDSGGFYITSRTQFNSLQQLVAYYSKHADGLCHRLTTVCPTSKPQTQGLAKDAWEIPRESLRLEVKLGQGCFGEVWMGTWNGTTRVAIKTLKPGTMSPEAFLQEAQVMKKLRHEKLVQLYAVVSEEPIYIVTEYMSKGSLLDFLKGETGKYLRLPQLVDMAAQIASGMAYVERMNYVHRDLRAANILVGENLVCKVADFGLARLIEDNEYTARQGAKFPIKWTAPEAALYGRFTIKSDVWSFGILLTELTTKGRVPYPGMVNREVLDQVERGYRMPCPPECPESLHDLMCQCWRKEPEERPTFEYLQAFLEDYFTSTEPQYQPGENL
Method: as §1

DDR1 = target: T8, DDR1 (Homo sapiens, UniProt Q08345); assay: In vitro kinase assay (IC50); format: biochemical
T8 construct: purchased Reaction Biology Corp
Method: as §1

Fgr = target: T9, Fgr (Homo sapiens, UniProt P09769); assay: In vitro kinase assay (IC50); format: biochemical
T9 construct: purchased Reaction Biology Corp
Method: as §1

Yes = target: T10, Yes (Homo sapiens, UniProt P07947); assay: In vitro kinase assay (IC50); format: biochemical
T10 construct: purchased Reaction Biology Corp
Method: as §1

Lck [3] = target: T4, Lck; assay: Biochemical IC50 on Lck at Km and 1 mM ATP
Method: as §1

DSS-induced colitis mice = assay: DSS-induced colitis model; format: in vivo; settings: 5 mg/kg, i.p., daily for 7 days, 4% DSS, day 7
Method: Male C57BL/6 mice (21 ± 2 g; 6 weeks) were obtained from Oriental Bio Inc. (Seongnam-si, Korea). All mice were bred under constant conditions (temperature: 22 ± 2 °C, humidity: 40–60%, light/dark cycle: 12 h). All animal experiments were conducted under the university guidelines of the ethical committee for Animal Care and Use of the Kyung Hee University (KHSASP-22–002).
Colitis in mice was induced by providing water containing 4% (w/v) DSS for 7 days. Mice were randomly divided into 5 groups (n = 6/group, Figure 8) as follows: control group treated with vehicle; DSS plus vehicle group exposed to 4% DSS and treated with vehicle; the other 3 groups consist of mice receiving 4% DSS was treated with 5-ASA (75 mg/kg/day, p.o.) as a positive control or 7a (1, 5 mg/kg/day, i.p.) daily for 7 days.
To calculate the severity of colitis, body weight, stool consistency, and occult/gross bleeding of all mice were assessed. DAI score was measured every day according to the following table (Table 5). The colon length was measured at end of the experiment.

Lck (Y394) = assay: Western blot of p-Lck (Y394) in anti-CD3-treated Jurkat cells; format: cell-based; settings: anti-CD3-treated Jurkat T cells, 10, 50, or 100 μM, 30 min
Method: Figure 6. Effect of 7a on the Lck (Y394) activation in anti-CD3-treated Jurkat cells. After treatment with CD3 antibody for coating in plates, cells were seeded and then treated with various concentrations of 7a (10, 50, or 100 μM) or A770041 (1 μM) used as a positive control. The phosphorylation of Lck tyrosine in Jurkat cells was activated by anti-CD3 mAb. Total cellular protein was resolved by SDS-PAGE, transferred to PVDF membranes, and detected with specific p-Lck (Y394) antibody. β-Actin was used as an internal control.
Jurkat cells were purchased from the Korea Cell Line Bank (Seoul, Republic of Korea) and maintained in RPMI-1640 medium containing 10% FBS, streptomycin sulphate, penicillin, HEPES, and sodium bicarbonate in a 5% CO2 atmosphere at 37 °C. Jurkat cells were stimulated with 1 μg/ml of plate-bound anti-CD3 mAb (clone HIT3a, BD Bioscience) and then incubated with KITS 1–001 (10, 50, or 100 μM) for 30 min.
The protein of Jurkat cells was extracted using a PRO-PREP (Intron Biotechnology, Seoul, Republic of Korea). The protein concentration was determined using Bio-Rad protein assay reagent according to the manufacturer’s instruction and BSA (Bio-Rad, Hercules, CA, USA) was used as a standard for quantification. […] The membranes were analysed using an enhanced chemiluminescence (ECL) substrate and imaged by LAS-4000 luminescent image analyser (FUJIFILM, Tokyo, Japan).

EPHB3 = target: T11, EPHB3 (Homo sapiens, UniProt P54753); assay: kinase selectivity profiling; format: biochemical; settings: 10µM ATP, read-out: % inhibition (relative to DMSO)
T11 construct: purchased Reaction Biology Corp
Method: as §1

SGK2 = target: T12, SGK2 (Homo sapiens, UniProt Q9HBY8); assay: kinase selectivity profiling; format: biochemical; settings: 10µM ATP, read-out: % inhibition (relative to DMSO)
T12 construct: purchased Reaction Biology Corp
Method: as §1

CDK1/cyclin A = target: T13, CDK1/cyclin A (Homo sapiens, UniProt P06493); assay: kinase selectivity profiling; format: biochemical; settings: 10µM ATP, read-out: % inhibition (relative to DMSO)
T13 construct: purchased Reaction Biology Corp
T13 sequence (P06493 whole entry): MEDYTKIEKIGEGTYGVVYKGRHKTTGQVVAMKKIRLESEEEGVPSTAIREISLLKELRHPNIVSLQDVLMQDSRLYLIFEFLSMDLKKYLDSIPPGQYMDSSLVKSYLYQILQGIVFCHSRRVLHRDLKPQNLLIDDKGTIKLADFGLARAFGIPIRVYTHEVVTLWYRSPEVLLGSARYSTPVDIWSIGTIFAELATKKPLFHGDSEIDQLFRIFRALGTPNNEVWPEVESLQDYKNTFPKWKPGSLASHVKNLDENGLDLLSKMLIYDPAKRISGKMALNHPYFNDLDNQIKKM
T13 sequence (P20248 whole entry partner): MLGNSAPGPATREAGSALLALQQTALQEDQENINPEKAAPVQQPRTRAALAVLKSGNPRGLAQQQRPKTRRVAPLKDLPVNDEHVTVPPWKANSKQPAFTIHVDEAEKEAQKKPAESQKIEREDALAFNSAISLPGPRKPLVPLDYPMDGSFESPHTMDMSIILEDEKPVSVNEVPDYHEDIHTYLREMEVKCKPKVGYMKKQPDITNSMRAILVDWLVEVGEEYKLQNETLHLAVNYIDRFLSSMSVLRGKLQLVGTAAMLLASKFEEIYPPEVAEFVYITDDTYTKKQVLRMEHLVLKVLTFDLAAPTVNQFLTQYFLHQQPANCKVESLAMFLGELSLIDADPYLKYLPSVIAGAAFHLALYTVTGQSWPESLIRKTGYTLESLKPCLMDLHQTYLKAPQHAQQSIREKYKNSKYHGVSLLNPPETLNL
Method: as §1

LKB1 = target: T14, LKB1 (Homo sapiens, UniProt Q15831); assay: kinase selectivity profiling; format: biochemical; settings: 10µM ATP, read-out: % inhibition (relative to DMSO)
T14 construct: purchased Reaction Biology Corp
Method: as §1

CDK2/Cyclin A1 = target: T15, CDK2/Cyclin A1 (Homo sapiens, UniProt P24941); assay: kinase selectivity profiling; format: biochemical; settings: 10µM ATP, read-out: % inhibition (relative to DMSO)
T15 construct: purchased Reaction Biology Corp
Method: as §1

c-Src [4] = target: T7, c-Src; assay: kinase selectivity profiling; format: biochemical; settings: 10µM ATP, read-out: % inhibition (relative to DMSO)
Method: as §1

Aurora A = target: T16, Aurora A (Homo sapiens, UniProt O14965); assay: kinase selectivity profiling; format: biochemical; settings: 10µM ATP, read-out: % inhibition (relative to DMSO)
T16 construct: purchased Reaction Biology Corp
Method: as §1

ROS/ROS1 = target: T17, ROS/ROS1 (Homo sapiens, UniProt P08922); assay: kinase selectivity profiling; format: biochemical; settings: 10µM ATP, read-out: % inhibition (relative to DMSO)
T17 construct: purchased Reaction Biology Corp
Method: as §1

PKA = target: T18, PKA (Homo sapiens, UniProt P17612); assay: kinase selectivity profiling; format: biochemical; settings: 10µM ATP, read-out: % inhibition (relative to DMSO)
T18 construct: purchased Reaction Biology Corp
Method: as §1

CDK7/cyclin H = target: T19, CDK7/cyclin H (Homo sapiens, UniProt P50613); assay: kinase selectivity profiling; format: biochemical; settings: 10µM ATP, read-out: % inhibition (relative to DMSO)
T19 construct: purchased Reaction Biology Corp
T19 sequence (P50613 whole entry): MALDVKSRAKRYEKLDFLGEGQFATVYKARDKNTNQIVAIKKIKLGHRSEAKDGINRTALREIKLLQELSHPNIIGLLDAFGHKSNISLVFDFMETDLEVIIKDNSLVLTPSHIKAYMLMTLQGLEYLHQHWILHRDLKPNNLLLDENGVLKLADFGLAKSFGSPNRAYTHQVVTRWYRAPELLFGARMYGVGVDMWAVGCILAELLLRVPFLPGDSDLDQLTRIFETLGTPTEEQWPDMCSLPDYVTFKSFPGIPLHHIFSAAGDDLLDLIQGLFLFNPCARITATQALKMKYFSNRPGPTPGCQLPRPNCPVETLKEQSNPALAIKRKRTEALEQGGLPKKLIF
T19 sequence (P51946 whole entry partner): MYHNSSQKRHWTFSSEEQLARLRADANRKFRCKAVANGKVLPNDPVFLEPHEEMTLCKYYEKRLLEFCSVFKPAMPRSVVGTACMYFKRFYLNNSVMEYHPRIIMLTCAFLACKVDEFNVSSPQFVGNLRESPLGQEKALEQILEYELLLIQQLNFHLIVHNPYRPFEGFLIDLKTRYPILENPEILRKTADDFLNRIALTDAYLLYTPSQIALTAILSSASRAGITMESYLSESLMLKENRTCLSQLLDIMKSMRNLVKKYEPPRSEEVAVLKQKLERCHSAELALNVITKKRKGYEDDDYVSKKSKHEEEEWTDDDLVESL
T19 sequence (P51948 whole entry partner): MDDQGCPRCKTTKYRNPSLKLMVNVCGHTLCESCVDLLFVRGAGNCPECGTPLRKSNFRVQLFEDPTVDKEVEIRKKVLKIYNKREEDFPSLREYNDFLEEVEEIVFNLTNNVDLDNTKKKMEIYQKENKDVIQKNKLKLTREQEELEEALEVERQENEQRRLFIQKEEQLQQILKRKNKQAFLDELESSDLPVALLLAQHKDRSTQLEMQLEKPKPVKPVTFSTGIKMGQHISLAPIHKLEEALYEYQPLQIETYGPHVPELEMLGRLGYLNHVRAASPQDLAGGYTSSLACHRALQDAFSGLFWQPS
Method: as §1

**Q.** Which IC50 (p38a) does the source give for `Cc1ccc(Nc2ncc3c(n2)N(C)C(=O)N(c2cc(C(=O)N[C@H](C(=O)N4CCC[C@H]4C(=O)NC(C)(C)C(=O)N[C@@H](CC(C)C)C(=O)N(C)C)C(C)C)ccc2C)C3)cn1` [7a, (S)-N-(1-(((S)-1-(dimethylamino)-4-methyl-1-oxopentan-2-yl)amino)-2-methyl-1-oxopropan-2-yl)-1-((4-methyl-3-(1-methyl-7-((6-methylpyridin-3-yl)amino)-2-oxo-1,4-dihydropyrimido[4,5-d]pyrimidin-3(2H)-yl)benzoyl)-L-valyl)pyrrolidine-2-carboxamide] (X1-VP[Aib]L-NMe2) here?
**A.** > 10000 nM

**Q.** And the IC50 (Abl1)?
**A.** 378 nM

**Q.** And the IC50 (Lyn)?
**A.** 671 nM

**Q.** What about the IC50 (Lck [1]) of the same compound?
**A.** 23 nM

**Q.** What about the “selectivity for Lck over c-Src” value (Lck [1]) of the same compound?
**A.** over 10 fold

**Q.** What about the “Lck selectivity over c-Src (c-Src IC50 / Lck IC50)” value (Lck [1]; Table 2) of the same compound?
**A.** 37

**Q.** What about the IC50 (BMX/ETK) of the same compound?
**A.** 293 nM

**Q.** What about the IC50 (Blk) of the same compound?
**A.** 253 nM

**Q.** And the IC50 (c-Src [2])?
**A.** 861 nM

**Q.** And the IC50 (DDR1)?
**A.** 110 nM

**Q.** And the IC50 (Fgr)?
**A.** 201 nM

**Q.** And the IC50 (Yes)?
**A.** 495 nM

**Q.** What about the IC50 (Lck [3]; ATP conc. 14 µM (Km)) of the same compound?
**A.** 190 nM

**Q.** And the IC50 (Lck [3]; ATP conc. 1 mM)?
**A.** 21000 nM

**Q.** What about the mode of inhibition (Lck [3]; IC50 at Km vs 1 mM ATP) of the same compound?
**A.** ATP competitive kinase inhibitors

**Q.** What about the “disease activity index (DAI) symptom changes” value (DSS-induced colitis mice) of the same compound?
**A.** improved the symptom changes at the end of experiments

**Q.** What about the colon length (DSS-induced colitis mice; mean ± SE, n = 6) of the same compound?
**A.** 5.47 ± 0.60 cm

**Q.** What about the “phosphorylated Lck levels at tyrosine 394” value (Lck (Y394)) of the same compound?
**A.** markedly reduced the phosphorylated Lck levels at tyrosine 394 residue in a concentration-dependent manner

**Q.** And the inhibition at 1 µM (EPHB3)?
**A.** 8%

**Q.** And the inhibition at 1 µM (SGK2)?
**A.** 0%

**Q.** What about the inhibition at 1 µM (CDK1/cyclin A) of the same compound?
**A.** 0%

**Q.** What about the inhibition at 1 µM (LKB1) of the same compound?
**A.** 0%

**Q.** What about the inhibition at 1 µM (CDK2/Cyclin A1) of the same compound?
**A.** 1%

**Q.** What about the inhibition at 1 µM (c-Src [4]) of the same compound?
**A.** 64%

**Q.** And the inhibition at 1 µM (Aurora A)?
**A.** 0%

**Q.** And the inhibition at 1 µM (ROS/ROS1)?
**A.** 9%

**Q.** And the inhibition at 1 µM (PKA)?
**A.** 6%

**Q.** What about the inhibition at 1 µM (CDK7/cyclin H) of the same compound?
**A.** 3%
